Experiments:
barnyardgrass [1] = test: Test D flooded paddy test; assay type: in vivo, Echinochloa crus-galli; details: 250 g ai/ha, applied to paddy water, visual rating after 13 to 14 days, scale 0 to 100 (0 no effect, 100 complete control)
How it was run: (§1)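 2-leaf plants; flood 3 cm above soil; compound dosed into paddy water; greenhouse 13–14 d; visual rating vs controls, 0–100 (100 = complete control); dash = not tested.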

sedge, umbrella = test: Test D flooded paddy test; assay type: in vivo, Cyperus difformis; details: 250 g ai/ha, applied to paddy water, visual rating after 13 to 14 days, scale 0 to 100 (0 no effect, 100 complete control)
How it was run: as §1

green foxtail [2] = test: Test C postemergence; assay type: in vivo, Setaria viridis; details: 10 days
How it was run: (§2)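 Greenhouse herbicide screen, 10-day duration. Test chemicals in solvent/surfactant blend were sprayed onto soil at sowing (pre) or onto 2–10 cm seedlings at one to two leaves (post); injury scored visually against controls, 0 no effect to 100 complete control.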

ryegrass, Italian [3] = test: Test C postemergence; assay type: in vivo, Lolium multiflorum; details: 10 days
How it was run: as §2

ducksalad = test: Test D flooded paddy test; assay type: in vivo, Heteranthera limosa; details: 250 g ai/ha, applied to paddy water, visual rating after 13 to 14 days, scale 0 to 100 (0 no effect, 100 complete control)
How it was run: as §1

horseweed = test: Test C postemergence; assay type: in vivo, Erigeron canadensis; details: 10 days
How it was run: as §2

barnyardgrass [4] = test: Test C postemergence; assay type: in vivo, Echinochloa crusgalli; details: 10 days
How it was run: as §2

soybean [5] = test: Test C preemergence; assay type: in vivo, Glycine max; details: 0 to 100 scale (0 no effect, 100 complete control); for Soybean plant response rating: preemergence
How it was run: as §2

ragweed [6] = test: Test C preemergence; assay type: in vivo, Ambrosia artemisiifolia; details: 0 to 100 scale (0 no effect, 100 complete control); for Ragweed plant response rating: preemergence
How it was run: as §2

pigweed, palmer [7] = test: Test C postemergence; assay type: in vivo, Amaranthus palmeri; details: 10 days
How it was run: as §2

ragweed [8] = test: Test C postemergence; assay type: in vivo, Ambrosia artemisiifolia; details: 10 days
How it was run: as §2

barnyardgrass [9] = test: Test C preemergence; assay type: in vivo, Echinochloa crusgalli; details: 0 to 100 scale (0 no effect, 100 complete control); for Barnyardgrass plant response rating: preemergence
How it was run: as §2

kochia [10] = test: Test C postemergence; assay type: in vivo, Bassia scoparia; details: 10 days
How it was run: as §2

wheat [11] = test: Test C postemergence; assay type: in vivo, Triticum aestivum; details: 10 days
How it was run: as §2

wheat [12] = test: Test C preemergence; assay type: in vivo, Triticum aestivum; details: 0 to 100 scale (0 no effect, 100 complete control); for Wheat plant response rating: preemergence
How it was run: as §2

rice = test: Test D flooded paddy test; assay type: in vivo, Oryza sativa; details: 250 g ai/ha, applied to paddy water, visual rating after 13 to 14 days, scale 0 to 100 (0 no effect, 100 complete control)
How it was run: as §1

blackgrass [13] = test: Test C preemergence; assay type: in vivo, Alopecurus myosuroides; details: 0 to 100 scale (0 no effect, 100 complete control); for Blackgrass plant response rating: preemergence
How it was run: as §2

pigweed, palmer [14] = test: Test C preemergence; assay type: in vivo, Amaranthus palmeri; details: 0 to 100 scale (0 no effect, 100 complete control); for Pigweed, Palmer plant response rating: preemergence
How it was run: as §2

corn [15] = test: Test C preemergence; assay type: in vivo, Zea mays; details: 0 to 100 scale (0 no effect, 100 complete control); for Corn plant response rating: preemergence
How it was run: as §2

ryegrass, Italian [16] = test: Test C preemergence; assay type: in vivo, Lolium multiflorum; details: 0 to 100 scale (0 no effect, 100 complete control); for Ryegrass, Italian plant response rating: preemergence
How it was run: as §2

oat, wild [17] = test: Test C preemergence; assay type: in vivo, Avena fatua; details: 0 to 100 scale (0 no effect, 100 complete control); for Oat, Wild plant response rating: preemergence
How it was run: as §2

oat, wild [18] = test: Test C postemergence; assay type: in vivo, Avena fatua; details: 10 days
How it was run: as §2

blackgrass [19] = test: Test C postemergence; assay type: in vivo, Alopecurus myosuroides; details: 10 days
How it was run: as §2

soybean [20] = test: Test C postemergence; assay type: in vivo, Glycine max; details: 10 days
How it was run: as §2

corn [21] = test: Test C postemergence; assay type: in vivo, Zea mays; details: 10 days
How it was run: as §2

galium = test: Test C postemergence; assay type: in vivo, Galium aparine; details: 10 days
How it was run: as §2

kochia [22] = test: Test C preemergence; assay type: in vivo, Bassia scoparia; details: 0 to 100 scale (0 no effect, 100 complete control); for Kochia plant response rating: preemergence
How it was run: as §2

green foxtail [23] = test: Test C preemergence; assay type: in vivo, Setaria viridis; details: 0 to 100 scale (0 no effect, 100 complete control); for Foxtail, Green plant response rating: preemergence
How it was run: as §2

[24] = 125 g ai/ha, postemergence, 0 to 100 scale, 0 no effect, 100 complete control
[25] = 500 g ai/ha, postemergence, 0 to 100 scale (0 no effect, 100 complete control)
[26] = Postemergence, 500 g ai/ha, visual 0 to 100 scale (0 no effect, 100 complete control)
[27] = Preemergence, 500 g ai/ha, visual rating after 10 days

## Cc1cccc2c1O[C@@H](C)CN2C(=O)c1cccc(-n2cnc(N(C)S(C)(=O)=O)n2)c1 [Compound 299]
Barnyardgrass [1]
  Plant response rating, Barnyardgrass (Flood): 0
sedge, umbrella
  Plant response rating, Sedge, Umbrella (Flood): 25
Green foxtail [2]; [24]
  Plant response rating, Foxtail, Green: 10
Green foxtail [2]; [25]
  Plant response rating, Foxtail, Green: 40
ryegrass, Italian [3]; [24]
  Plant response rating, Ryegrass, Italian: 70
ryegrass, Italian [3]; [25]
  Plant response rating, Ryegrass, Italian: 90
ducksalad
  Plant response rating, Ducksalad (Flood): 95
horseweed; [24]
  Plant response rating, Horseweed: 10
horseweed; [25]
  Plant response rating, Horseweed: 30
Barnyardgrass [4]; [24]
  Plant response rating, Barnyardgrass: 10
Barnyardgrass [4]; [25]
  Plant response rating, Barnyardgrass: 50
Soybean [5]; 500 g ai/ha
  Soybean plant response rating: 0
Soybean [5]; Test C, 125 g ai/ha
  Soybean plant response rating: 0
Ragweed [6]; 500 g ai/ha
  Ragweed plant response rating: 100
Ragweed [6]; Test C, 125 g ai/ha
  Ragweed plant response rating: 70
pigweed, palmer [7]; [24]
  Plant response rating, Pigweed, Palmer: 40
pigweed, palmer [7]; [25]
  Plant response rating, Pigweed, Palmer: 60
Ragweed [8]; [24]
  Plant response rating, Ragweed: 0
Ragweed [8]; [25]
  Plant response rating, Ragweed: 0
Barnyardgrass [9]; 500 g ai/ha
  Barnyardgrass plant response rating: 80
Barnyardgrass [9]; Test C, 125 g ai/ha
  Barnyardgrass plant response rating: 10
Kochia [10]; [24]
  Plant response rating, Kochia: 10
Kochia [10]; [25]
  Plant response rating, Kochia: 70
Wheat [11]; [24]
  Plant response rating, Wheat: 20
Wheat [11]; [25]
  Plant response rating, Wheat: 40
Wheat [12]; 500 g ai/ha
  Wheat plant response rating: 30
Wheat [12]; Test C, 125 g ai/ha
  Wheat plant response rating: 0
rice
  Plant response rating, Rice (Flood): 0
Blackgrass [13]; 500 g ai/ha
  Blackgrass plant response rating: 70
Blackgrass [13]; Test C, 125 g ai/ha
  Blackgrass plant response rating: 30
pigweed, palmer [14]; 500 g ai/ha
  Pigweed, Palmer plant response rating: 90
pigweed, palmer [14]; Test C, 125 g ai/ha
  Pigweed, Palmer plant response rating: 50
Corn [15]; 500 g ai/ha
  Corn plant response rating: 30
Corn [15]; Test C, 125 g ai/ha
  Corn plant response rating: 0
ryegrass, Italian [16]; 500 g ai/ha
  Ryegrass, Italian plant response rating: 90
ryegrass, Italian [16]; Test C, 125 g ai/ha
  Ryegrass, Italian plant response rating: 70
oat, wild [17]; 500 g ai/ha
  Oat, Wild plant response rating: 90
oat, wild [17]; Test C, 125 g ai/ha
  Oat, Wild plant response rating: 0
oat, wild [18]; [24]
  Plant response rating, Oat, Wild: 20
oat, wild [18]; [25]
  Plant response rating, Oat, Wild: 60
Blackgrass [19]; [24]
  Plant response rating, Blackgrass: 20
Blackgrass [19]; [25]
  Plant response rating, Blackgrass: 90
Soybean [20]; [24]
  Plant response rating, Soybean: 60
Soybean [20]; [25]
  Plant response rating, Soybean: 100
Corn [21]; [24]
  Plant response rating, Corn: 10
Corn [21]; [25]
  Plant response rating, Corn: 20
galium; [24]
  Plant response rating, Galium: 80
galium; [25]
  Plant response rating, Galium: 90
Kochia [22]; 500 g ai/ha
  Kochia plant response rating: 80
Kochia [22]; Test C, 125 g ai/ha
  Kochia plant response rating: 0
Green foxtail [23]; 500 g ai/ha
  Foxtail, Green plant response rating: 100
Green foxtail [23]; Test C, 125 g ai/ha
  Foxtail, Green plant response rating: 60

## CCc1ccc(-n2cnc(C(C)C)n2)cc1C(=O)N1C[C@H](C)Oc2c(C)cccc21 [Compound 240]
Barnyardgrass [1]
  Plant response rating, Barnyardgrass (Flood): 35
sedge, umbrella
  Plant response rating, Sedge, Umbrella (Flood): 100
Green foxtail [2]; [24]
  Plant response rating, Foxtail, Green: 80
Green foxtail [2]; [26]
  Plant response rating, Foxtail, Green: 90
ryegrass, Italian [3]; [24]
  Plant response rating, Ryegrass, Italian: 70
ryegrass, Italian [3]; [26]
  Plant response rating, Ryegrass, Italian: 90
ducksalad
  Plant response rating, Ducksalad (Flood): 80
horseweed; [24]
  Plant response rating, Horseweed: 0
horseweed; [26]
  Plant response rating, Horseweed: 70
Barnyardgrass [4]; [24]
  Plant response rating, Barnyardgrass: 40
Barnyardgrass [4]; [26]
  Plant response rating, Barnyardgrass: 80
Soybean [5]; [27]
  Plant response rating, Soybean: 100
Soybean [5]; Test C, 125 g ai/ha
  Soybean plant response rating: 100
Ragweed [6]; [27]
  Plant response rating, Ragweed: 20
Ragweed [6]; Test C, 125 g ai/ha
  Ragweed plant response rating: 10
pigweed, palmer [7]; [24]
  Plant response rating, Pigweed, Palmer: 90
pigweed, palmer [7]; [26]
  Plant response rating, Pigweed, Palmer: 100
Ragweed [8]; [24]
  Plant response rating, Ragweed: 50
Ragweed [8]; [26]
  Plant response rating, Ragweed: 80
Barnyardgrass [9]; [27]
  Plant response rating, Barnyardgrass: 100
Barnyardgrass [9]; Test C, 125 g ai/ha
  Barnyardgrass plant response rating: 90
Kochia [10]; [24]
  Plant response rating, Kochia: 30
Kochia [10]; [26]
  Plant response rating, Kochia: 90
Wheat [11]; [24]
  Plant response rating, Wheat: 20
Wheat [11]; [26]
  Plant response rating, Wheat: 50
Wheat [12]; [27]
  Plant response rating, Wheat: 90
Wheat [12]; Test C, 125 g ai/ha
  Wheat plant response rating: 60
rice
  Plant response rating, Rice (Flood): 10
Blackgrass [13]; [27]
  Plant response rating, Blackgrass: 90
Blackgrass [13]; Test C, 125 g ai/ha
  Blackgrass plant response rating: 60
pigweed, palmer [14]; [27]
  Plant response rating, Pigweed, Palmer: 100
pigweed, palmer [14]; Test C, 125 g ai/ha
  Pigweed, Palmer plant response rating: 100
Corn [15]; [27]
  Plant response rating, Corn: 60
Corn [15]; Test C, 125 g ai/ha
  Corn plant response rating: 70
ryegrass, Italian [16]; [27]
  Plant response rating, Ryegrass, Italian: 100
ryegrass, Italian [16]; Test C, 125 g ai/ha
  Ryegrass, Italian plant response rating: 100
oat, wild [17]; [27]
  Plant response rating, Oat, Wild: 90
oat, wild [17]; Test C, 125 g ai/ha
  Oat, Wild plant response rating: 90
oat, wild [18]; [24]
  Plant response rating, Oat, Wild: 60
oat, wild [18]; [26]
  Plant response rating, Oat, Wild: 70
Blackgrass [19]; [24]
  Plant response rating, Blackgrass: 80
Blackgrass [19]; [26]
  Plant response rating, Blackgrass: 90
Soybean [20]; [24]
  Plant response rating, Soybean: 100
Soybean [20]; [26]
  Plant response rating, Soybean: 100
Corn [21]; [24]
  Plant response rating, Corn: 60
Corn [21]; [26]
  Plant response rating, Corn: 80
galium; [24]
  Plant response rating, Galium: 100
galium; [26]
  Plant response rating, Galium: 100
Kochia [22]; [27]
  Plant response rating, Kochia: 100
Kochia [22]; Test C, 125 g ai/ha
  Kochia plant response rating: 70
Green foxtail [23]; [27]
  Plant response rating, Foxtail, Green: 100
Green foxtail [23]; Test C, 125 g ai/ha
  Foxtail, Green plant response rating: 100

Source: patent publication US20260262643A1, “HERBICIDAL BENZOXAZINES” (FMC CORPORATION, priority 2022, published 2026)
